Bounds are passed on as bounds.

Data on 1 substance can be found in PMC6892585 (Bioorganic & medicinal chemistry, 2019).

The series has as its system Caco-2 cells.

As for Lucifer yellow [LY], the “permeability (Papp)” value was at most 1 ×10⁻⁶ cm/s.
